Test results published in patent US9409983B2, “Methods and compositions involving PBEF inhibitors for lung inflammation conditions and diseases” (The Board of Trustess of the University of Illinois, priority 2009, dated 2016).
Entries after “also recorded” stand apart in the source; their conditions may differ.

Tests used:
[1] = tested on: rat peritoneal neutrophils; assay: Transmigration and chemotaxis assay (Transwell); assay type: cell-based; conditions: rhPBEF (10 ng/ul) or casein in lower chamber, up to 4 hours
Experimental: Chemotaxis of rat peritoneal neutrophils (calcein-AM) across 3 μm polycarbonate filters was assessed in response to recombinant human PBEF/visfatin (rhPBEF, PeproTech, Rocky Hill, N.J.), or casein (positive control). (See Supplemental Methods for additional details).
Neutrophils were collected from retired breeder male Harlan-Sprague Dawley rats by intraperitoneal injection of 2.5% casein (5 ml). The resulting peritoneal fluid was recovered by PBS peritoneal lavage after 18 hr, centrifuged and examined for total cell counts and cell differentiation. For chemotaxis assays, leukocytes were exposed to calcein-AM in the presence of plurionic acid for 1 hr at room temperature. The temperature was then elevated to 37° C. for 30 min to cleave the calcein AM thereby reducing the rate of calcein diffusion out of the cells. […] The receiving wells were assessed serially in a fluorescent plate reader with absorption at 494 nm and emission measured at 517 nm. Fluorescence was recorded at 5, 10, 15, 30 min and each subsequent 30 min period for up to 4 hr. Aliquots of known numbers of neutrophils were counted in separate wells at each time point to account for any quenching of the fluorescence over time.

[2] = tested on: C57BL/6 mice; assay: Lung RNA microarray analysis (SAM dysregulated genes) with RT-PCR and BAL ELISA validation; assay type: in vivo, mouse
Experimental: Total lung RNA was isolated as described previously (Nonas et al., 2007). Affymetrix Mouse430_2 arrays (Affymetrix Inc., Santa Clara, Calif.) were utilized. Chip quality (Li and Wong, 2001) and ‘present’ or ‘absent’ expression calls were determined by GeneChip® Operating Software (GCOS) (GSE9368-rhPBEF, GSE9314-PBEF^+/−). Intensities and normalization of probe sets were calculated by Bioconductor software (GCRMA package) (Team RDC, 2005). To identify differentially-expressed genes, pairwise comparisons were conducted using Significance Analysis of Microarrays (SAM) as previously described (Nonas et al., 2007). Gene filtering parameters and results are summarized in Supplementary Table E2. Differentially-expressed genes displaying>2 fold changes are referred to as “dysregulated genes”.
Dysregulated gene functional profiles were analyzed using Onto-Express with the number of genes in each GO biological process category (Wu et al., 2004) compared with all genes on the […] chip to determine the significance of the GO category (Consortium, 2006). Ingenuity Pathway Analysis (IPA) software (containing individually modeled relationships between gene objects e.g. genes, mRNAs, proteins) was utilized to dynamically generate significant regulatory and signaling networks or pathways. The significance of a canonical pathway is controlled by the p-value calculated using the right-tailed Fisher Exact Test for 2×2 contingency tables. (See Supplemental Methods).
Lung total RNA was isolated from whole rodent lung tissue for microarray experiment as we have described previously (9) using the Affymetrix GeneChip platform and Expression Analysis Manual protocols (Affymetrix Inc., Santa Clara, Calif.). The signal intensity fluorescent images produced during Affymetrix GeneChip Mouse430_2 Array hybridizations were scanned using the Hewlett-Packard GeneArray Scanner G2500A. The ‘Present’ or ‘Absent’ calls of the probe sets in the expression chips were determined by GCOS (GeneChip® Operating Software) software. The microarray data have been submitted to the National Center for Biotechnology Information (NCBI)'s Gene Expression Omnibus repository (GSE9368 for rhPBEF study and GSE9314 for PBEF^+/− study). Chip quality (RNA degradation, cDNA synthesis, hybridization, chip washing, scanning) was evaluated with GCOS, dChip (Li and Wong, 2001) and Bioconductor ‘affy’ packages. All RNA samples and chips adopted in current study passed the quality criteria (data not shown). The intensities of probe sets were calculated by the GC Robust Multichip Average (GCRMA) package of Bioconductor software for normalization (Team RDC, 2005). To identify differentially-expressed genes, pairwise comparisons were conducted using Significance Analysis of Microarrays (SAM) (see the SAM online manual for detailed explanations of the blocking approach, www-stat.stanford.edu/˜tibs/SAM) as we have previously described (Nonas et al., 2007). Only probe sets present (determined by Affy ‘P’-call) in three replicates of at least one group with mean intensity above 100 were used for further data mining. The gene filtering parameters and results were summarized in Supplementary Table E2. […] For probe sets representing the same Entrez Gene or UniGene ID, only the probe set with lowest FDR or highest fold changes was included in the gene list.
Dysregulated genes were uploaded into the IPA software (http://www.ingenuity.com), a web-delivered application which utilizes the Ingenuity Pathways Knowledge Base (IPKB) containing a robust number of individually modeled relationships between gene objects (e.g. genes, mRNAs, proteins), in order to dynamically generate significant regulatory and signaling networks or pathways. […]

rhPBEF: Recombinant human soluble PBEF/visfatin, a 52 kDa protein containing 465 amino acid residues, purchased from PeproTech
PMN migration across Transwell filters [1]: significant PMN migration beginning after 2 hrs; also recorded: significant PMN migration beginning at 2 hrs
dysregulated genes in the NFκB pathway ([2]; VILIa-rhPBEF combined exposure, Ingenuity Pathway Analysis): 21
CxCL1 (KC) DNA microarray, average fold change increase over control ([2]; rhPBEF): 510 fold change
Map3k8 DNA microarray, average fold change increase over control ([2]; rhPBEF): 3 fold change
TNF-α DNA microarray, average fold change increase over control ([2]; rhPBEF): 23 fold change
BCL3 DNA microarray, average fold change increase over control ([2]; rhPBEF VILIa): 11 fold change
CxCL1 (KC) DNA microarray, average fold change increase over control ([2]; rhPBEF VILIa): 589 fold change
CxCL2 (MIP2α) DNA microarray, average fold change increase over control ([2]; rhPBEF VILIa): 2128 fold change
MMP9 DNA microarray, average fold change increase over control ([2]; rhPBEF VILIa): 13 fold change
Unique Down ([2]; rhPBEF vs. Control, SAM, fold change 2): 118
